In patent publication US20190092761A1, “Methods and Compositions for Inhibition of Bromodomain and Extratermial Proteins” (Convergene LLC, priority 2014, published 2019):

The compounds below were run against T1, BRD4 bromodomains (Homo sapiens, UniProt O60885) (assay: BROMOscan bromodomain binding assay). Details: Kd classes; BRD4 bromodomains displayed on T7 phage, competition with acetylated peptide ligand, 11 concentrations 0 to 10 μM; read-out: BROMOscan Relative Activity.
T1 construct: fused on or other part: T7 phage capsid protein (fusion for phage display)
Description: Bromodomain assays were conducted to measure interactions between certain compounds and bromodomains. In order to measure compounds' direct activity against BRD4, dissociation constants ([…]) of the bromodomain inhibitors of the present invention were obtained using a biophysical binding assay, BROMOscan℠ (DiscoveRx, San Diego, Calif.), a modified phage-display system originally developed for kinases (Nat Biotechnol. 2005 March; 23(3):329-36).
The assays were conducted according to BROMOscan protocol from Discover Rx. Briefly, BRD4 bromodomains expressed as a fusion capsid protein of T7 phage were bound to acetylated peptide ligand on a solid phase and competition bindings were performed. T7 phage strains displaying bromodomains were grown in parallel in 24-well blocks in an E. coli host derived from the BL21 strain. E. coli were grown to log-phase and infected with T7 phage from a frozen stock (multiplicity of infection=0.4) and incubated with shaking at 32° C. until lysis (90-150 minutes). The lysates were centrifuged (5,000×g) and filtered (0.2 μm) to remove cell debris. Streptavidin-coated magnetic beads were treated with biotinylated small molecule or acetylated peptide ligands for 30 minutes at room temperature to generate affinity resins for bromodomain assays. The liganded beads were blocked with excess biotin and washed with blocking buffer (SeaBlock (Pierce), 1% BSA, 0.05% Tween 20, 1 mM DTT) to remove unbound ligand and to reduce non-specific phage binding. Binding reactions were assembled by combining bromodomains, liganded affinity beads, and test compounds in 1× binding buffer (17% SeaBlock, 0.33×PBS, 0.04% Tween 20, 0.02% BSA, 0.004% Sodium azide, 7.4 mM DTT). Test compounds were prepared as 1000× stocks in 100% DMSO and subsequently diluted 1:10 in monoethylene glycol (MEG) to create stocks at 100× the screening concentration (resulting stock solution is 10% DMSO/90% MEG). The compounds were then diluted directly into the assays such that the final concentration of DMSO and MEG were 0.1% and 0.9%, respectively. All reactions were performed in polystyrene 96-well plates in a final volume of 0.135 ml. The assay plates were incubated at room temperature with shaking for 1 hour and the affinity beads were washed with wash buffer (1×PBS, 0.05% Tween 20). The beads were then re-suspended in elution buffer (1×PBS, 0.05% Tween 20, 2 μM non-biotinylated affinity ligand) and incubated at room temperature with shaking for 30 minutes. The bromodomain concentration in the eluates was measured by qPCR. Data was collected at 11 compound concentrations ranging from 0 to 10 μM. Kd values were then derived from a standard dose-response curve generated with Hill equation (Hill Slope was set to −1) and a non-linear least square fit with the Levenberg-Marquardt algorithm.
Response=Background+Signal−Background/1+(Kd Hill Slope/Dose Hill Slope)
Data is reported in Table 3 as Relative Activity, wherein a Kd of less than 100 nM is denoted by (+++), a Kd of between 100 nM and 1 μM is denoted by (++), and a Kd of 1 μM to greater than 10 μM is denoted by (+).
For `CC(=O)N(Nc1cc(=O)[nH]c2ccc(-c3c(C)noc3C)cc12)c1ccccc1` [Example 7], the Kd was < 100 nM.
For `Cc1noc(C)c1-c1cc2[nH]c(=O)cc(NCc3ccccc3)c2cc1-c1c(C)noc1C` [Example 162, 4-(benzylamino)-6,7-bis(3,5-dimethylisoxazol-4-yl)quinolin-2(1H)-one], the Kd was < 100 nM.
For `Cc1noc(C)c1-c1ccc2[nH]c(=O)cc(NCc3cc(Cl)cc(Cl)c3)c2c1` [Example 124], the Kd was 100 to 1000 nM.
`Cc1noc(C)c1-c1cc2c(NCc3ccccc3)cc(=O)[nH]c2cc1C(N)=O` [Example 161, 4-(benzylamino)-6-(3,5-dimethylisoxazol-4-yl)-2-oxo-1,2-dihydroquinoline-7-carboxamide] was tested, and the Kd was < 100 nM.
In the case of `Cc1noc(C)c1-c1ccc2[nH]c(=O)cc(NCc3ccccc3F)c2c1` [Example 172], the Kd is reported as < 100 nM.
Work on `Cc1noc(C)c1-c1ccc2[nH]c(=O)cc(NCc3cccc(C(F)(F)F)c3)c2c1` [Example 120] yielded a Kd of 100 to 1000 nM.
For `Cc1noc(C)c1-c1cc2[nH]c(=O)c(C)c(NNc3ccccc3Cl)c2cc1-c1c(C)noc1C` [Example 60], the Kd was < 100 nM.
With `Cc1noc(C)c1-c1ccc2[nH]c(=O)cc(NN(C)c3ccccc3)c2c1` [Example 5, 6-(3,5-dimethylisoxazol-4-yl)-4-(2-methyl-2-phenylhydrazinyl)-quinolin-2(1H)-one] the Kd was < 100 nM.
With `Cc1noc(C)c1-c1ccc2[nH]c(=O)cc(NCc3ccc(-c4ccccc4)cc3)c2c1` [Example 140] the Kd was 100 to 1000 nM.
`Cc1noc(C)c1-c1ccc2[nH]c(=O)cc(NN(CC(=O)O)c3ccccc3)c2c1` [Example 6] was tested, and the Kd was < 100 nM.
With `Cc1noc(C)c1-c1cc2c(NCc3ccccc3)cc(=O)[nH]c2cc1C(=O)N(C)C` [Example 160, 4-(benzylamino)-6-(3,5-dimethylisoxazol-4-yl)-N,N-dimethyl-2-oxo-1,2-dihydroquinoline-7-carboxamide] the Kd was < 100 nM.
For `Cc1noc(C)c1-c1ccc2[nH]c(=O)cc(NCc3cccnc3)c2c1` [Example 175], the Kd was 100 to 1000 nM.
`Cc1noc(C)c1-c1ccc2[nH]c(=O)cc(NCC3CCCCC3)c2c1` [Example 144] gave a Kd of 100 to 1000 nM.
With `Cc1noc(C)c1-c1ccc2[nH]c(=O)cc(NCc3ccccc3)c2c1` [Example 170, 4-(benzylamino)-6-(3,5-dimethylisoxazol-4-yl)quinolin-2(1H)-one] the Kd was < 100 nM.
With `Cc1noc(C)c1-c1ccc2[nH]c(=O)cc(NN3CCc4ccccc4C3)c2c1` [Example 1] the Kd was < 100 nM.
`O=c1cc(NCc2cccc(Cl)c2)c2cc(-c3cccnc3)ccc2[nH]1` [Example 163, 4-(3-chlorobenzylamino)-6-(pyridin-3-yl)quinolin-2(1H)-one] was tested, and the Kd was < 100 nM.
`Cn1cc(-c2ccc3[nH]c(=O)cc(NCc4cccc(Cl)c4)c3c2)cn1` [Example 167, 4-(3-chlorobenzylamino)-6-(1-methyl-1H-pyrazol-4-yl)quinolin-2(1H)-one] was tested, and the Kd was < 100 nM.
`COc1ncccc1-c1ccc2[nH]c(=O)cc(NCc3cccc(Cl)c3)c2c1` [Example 165, 4-(3-chlorobenzylamino)-6-(2-methoxypyridin-3-yl)quinolin-2(1H)-one] was tested, and the Kd was > 1000 nM.
`COc1ccccc1CNc1cc(=O)[nH]c2ccc(-c3c(C)noc3C)cc12` [Example 171] was tested, and the Kd was < 100 nM.
`COc1cccc(CNc2cc(=O)[nH]c3ccc(-c4c(C)noc4C)cc23)c1` [Example 116] was tested, and the Kd was < 100 nM.
`Cc1noc(C)c1-c1ccc2[nH]c(=O)cc(NCc3cccc(Br)c3)c2c1` [Example 112] was tested, and the Kd was < 100 nM.
`Cc1noc(C)c1-c1ccc2[nH]c(=O)cc(NCc3ccc(Cl)cc3)c2c1` [Example 132] showed a Kd of 100 to 1000 nM.
For `COc1cncc(-c2ccc3[nH]c(=O)cc(NCc4cccc(Cl)c4)c3c2)c1` [Example 164, 4-(3-chlorobenzylamino)-6-(5-methoxypyridin-3-yl)quinolin-2(1H)-one], the Kd was < 100 nM.
In the case of `Cc1noc(C)c1-c1ccc2[nH]c(=O)cc(NCc3cccc(Cl)c3)c2c1` [Example 108], the Kd is reported as < 100 nM.
In the case of `O=c1cc(NCc2cccc(Cl)c2)c2cc(-c3ccncc3)ccc2[nH]1` [Example 166], the Kd is reported as < 100 nM.
`Cc1noc(C)c1-c1ccc2[nH]c(=O)cc(NCc3ccc(Cl)cc3Cl)c2c1` [Example 128] gave a Kd of 100 to 1000 nM.
`Cc1noc(C)c1-c1ccc2[nH]c(=O)cc(N[C@H](C)c3ccccc3)c2c1` [Example 173] was tested, and the Kd was < 100 nM.
